Results from PubChem BioAssay (NCI).
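Grown in 96-well plates, cells were treated for 48 hours with each compound at five concentrations. Insufficient inhibition: endpoint recorded as highest concentration tested. Abbreviation: GI50, concentration required for 50% inhibition of growth. TGI denotes the concentration required for complete inhibition of growth.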

Experiments:
Assay in all cases: NCI anticancer screen, dose series, 48 h
NCI/ADR-RES ovarian = test system: NCI/ADR-RES ovarian
UACC-257 melanoma = test system: UACC-257 melanoma
NCI-H226 lung = test system: NCI-H226 lung
SK-MEL-5 melanoma = test system: SK-MEL-5 melanoma
BT-549 breast = test system: BT-549 breast
NCI-H460 lung = test system: NCI-H460 lung
HT29 colon = test system: HT29 colon
EKVX NSCLC = test system: EKVX NSCLC
K-562 leukemia = test system: K-562 leukemia
ACHN renal = test system: ACHN renal
SK-OV-3 ovarian = test system: SK-OV-3 ovarian
MCF7 breast = test system: MCF7 breast
MDA-MB-435 = test system: MDA-MB-435
KM12 colon = test system: KM12 colon
PC-3 prostate = test system: PC-3 prostate
SF-295 CNS = test system: SF-295 CNS
IGROV1 ovarian = test system: IGROV1 ovarian
SK-MEL-28 melanoma = test system: SK-MEL-28 melanoma
SK-MEL-2 melanoma = test system: SK-MEL-2 melanoma
RPMI-8226 leukemia = test system: RPMI-8226 leukemia
HOP-62 NSCLC = test system: HOP-62 NSCLC
HL-60(TB) leukemia = test system: HL-60(TB) leukemia
SF-268 CNS = test system: SF-268 CNS
HCT-116 colon = test system: HCT-116 colon
UO-31 renal = test system: UO-31 renal
HS 578T breast = test system: HS 578T breast
HCC-2998 colon = test system: HCC-2998 colon
A498 renal = test system: A498 renal
COLO 205 colon = test system: COLO 205 colon
A549 NSCLC = test system: A549 NSCLC
NCI-H522 lung = test system: NCI-H522 lung
U251 CNS = test system: U251 CNS
786-0 renal = test system: 786-0 renal
LOX IMVI melanoma = test system: LOX IMVI melanoma
OVCAR-8 ovarian = test system: OVCAR-8 ovarian
SF-539 CNS = test system: SF-539 CNS
SR leukemia = test system: SR leukemia
MALME-3M melanoma = test system: MALME-3M melanoma
SN12C renal = test system: SN12C renal
TK-10 renal = test system: TK-10 renal
MDA-MB-231 breast = test system: MDA-MB-231 breast
OVCAR-5 ovarian = test system: OVCAR-5 ovarian
T-47D breast = test system: T-47D breast
SW-620 colon = test system: SW-620 colon
DU-145 prostate = test system: DU-145 prostate
HOP-92 NSCLC = test system: HOP-92 NSCLC
OVCAR-3 ovarian = test system: OVCAR-3 ovarian
OVCAR-4 ovarian = test system: OVCAR-4 ovarian
CAKI-1 renal = test system: CAKI-1 renal
M14 melanoma = test system: M14 melanoma
MOLT-4 leukemia = test system: MOLT-4 leukemia
HCT-15 colon = test system: HCT-15 colon
RXF 393 renal = test system: RXF 393 renal
NCI-H23 lung = test system: NCI-H23 lung
SNB-19 CNS = test system: SNB-19 CNS
UACC-62 melanoma = test system: UACC-62 melanoma

`CSc1nsc(S/C=C\C(=O)c2ccc(C)cc2)n1` was tested. Which GI50 (NCI/ADR-RES ovarian) did it give?
The GI50 was 25.8 µM.

What about the TGI (NCI/ADR-RES ovarian) of the same compound?
Its TGI is 67.7 µM.

What about the GI50 (UACC-257 melanoma) of the same compound?
Its GI50 is 22.6 µM.

What about the TGI (UACC-257 melanoma) of the same compound?
Its TGI is 49.2 µM.

And the GI50 (NCI-H226 lung)?
Its GI50 is 20.7 µM.

And the TGI (NCI-H226 lung)?
Its TGI is 55.5 µM.

And the GI50 (SK-MEL-5 melanoma)?
Its GI50 is 0.706 µM.

And the TGI (SK-MEL-5 melanoma)?
The TGI was 6.88 µM.

And the GI50 (BT-549 breast)?
The GI50 was 17.5 µM.

What about the TGI (BT-549 breast) of the same compound?
Its TGI is 40.3 µM.

What about the GI50 (NCI-H460 lung) of the same compound?
The GI50 was 26.7 µM.

And the TGI (NCI-H460 lung)?
Its TGI is greater than 73.5 µM.

And the GI50 (HT29 colon)?
The GI50 was 19 µM.

And the TGI (HT29 colon)?
Its TGI is greater than 57.1 µM.

And the GI50 (EKVX NSCLC)?
The GI50 was 22.5 µM.

What about the TGI (EKVX NSCLC) of the same compound?
Its TGI is 49.7 µM.

What about the GI50 (K-562 leukemia) of the same compound?
The GI50 was 6.37 µM.

What about the TGI (K-562 leukemia) of the same compound?
The TGI was greater than 100 µM.

And the GI50 (ACHN renal)?
Its GI50 is 17.6 µM.

And the TGI (ACHN renal)?
The TGI was 31.8 µM.

And the GI50 (SK-OV-3 ovarian)?
Its GI50 is 60.7 µM.

What about the TGI (SK-OV-3 ovarian) of the same compound?
The TGI was greater than 100 µM.

And the TGI (MCF7 breast)?
Its TGI is 35.4 µM.

What about the GI50 (MDA-MB-435) of the same compound?
The GI50 was 19.2 µM.

What about the TGI (MDA-MB-435) of the same compound?
The TGI was 45.6 µM.

And the GI50 (KM12 colon)?
Its GI50 is 28 µM.

What about the TGI (KM12 colon) of the same compound?
Its TGI is greater than 64.7 µM.

What about the GI50 (PC-3 prostate) of the same compound?
The GI50 was 29 µM.

What about the TGI (PC-3 prostate) of the same compound?
The TGI was greater than 57.6 µM.

What about the GI50 (SF-295 CNS) of the same compound?
Its GI50 is 18.2 µM.

And the TGI (SF-295 CNS)?
The TGI was 40.4 µM.

What about the GI50 (IGROV1 ovarian) of the same compound?
Its GI50 is 25.5 µM.

What about the TGI (IGROV1 ovarian) of the same compound?
Its TGI is greater than 100 µM.

And the GI50 (SK-MEL-28 melanoma)?
Its GI50 is 13.4 µM.

What about the TGI (SK-MEL-28 melanoma) of the same compound?
Its TGI is greater than 45.1 µM.

And the GI50 (SK-MEL-2 melanoma)?
Its GI50 is 35.7 µM.

What about the TGI (SK-MEL-2 melanoma) of the same compound?
Its TGI is greater than 100 µM.

And the GI50 (RPMI-8226 leukemia)?
The GI50 was 43 µM.

And the TGI (RPMI-8226 leukemia)?
Its TGI is greater than 100 µM.

And the GI50 (HOP-62 NSCLC)?
Its GI50 is 21 µM.

What about the TGI (HOP-62 NSCLC) of the same compound?
Its TGI is 43.8 µM.

What about the GI50 (HL-60(TB) leukemia) of the same compound?
Its GI50 is 11.6 µM.

What about the TGI (HL-60(TB) leukemia) of the same compound?
Its TGI is greater than 68.9 µM.

And the GI50 (SF-268 CNS)?
Its GI50 is 21.5 µM.

And the TGI (SF-268 CNS)?
The TGI was greater than 58.5 µM.

What about the GI50 (HCT-116 colon) of the same compound?
Its GI50 is 13 µM.

What about the TGI (HCT-116 colon) of the same compound?
The TGI was 25.7 µM.

What about the GI50 (UO-31 renal) of the same compound?
Its GI50 is 15.1 µM.

And the TGI (UO-31 renal)?
Its TGI is greater than 62.8 µM.

What about the GI50 (HS 578T breast) of the same compound?
Its GI50 is 0.187 µM.

And the TGI (HS 578T breast)?
Its TGI is 6.33 µM.

What about the GI50 (HCC-2998 colon) of the same compound?
Its GI50 is 17.8 µM.

And the TGI (HCC-2998 colon)?
Its TGI is 33.8 µM.

What about the GI50 (A498 renal) of the same compound?
Its GI50 is 0.0153 µM.

What about the TGI (A498 renal) of the same compound?
Its TGI is 0.169 µM.

And the GI50 (COLO 205 colon)?
Its GI50 is 25.5 µM.

And the TGI (COLO 205 colon)?
The TGI was greater than 63.7 µM.

And the GI50 (A549 NSCLC)?
Its GI50 is 35.1 µM.

And the TGI (A549 NSCLC)?
Its TGI is greater than 90.5 µM.

And the GI50 (NCI-H522 lung)?
The GI50 was 12.2 µM.

What about the TGI (NCI-H522 lung) of the same compound?
The TGI was greater than 59.5 µM.

And the GI50 (U251 CNS)?
The GI50 was 17.2 µM.

What about the TGI (U251 CNS) of the same compound?
Its TGI is 41.5 µM.

And the GI50 (786-0 renal)?
Its GI50 is 14.8 µM.

And the TGI (786-0 renal)?
The TGI was 28.9 µM.

What about the GI50 (LOX IMVI melanoma) of the same compound?
The GI50 was 4.94 µM.

What about the TGI (LOX IMVI melanoma) of the same compound?
Its TGI is 10.8 µM.

And the GI50 (OVCAR-8 ovarian)?
Its GI50 is 22.5 µM.

What about the TGI (OVCAR-8 ovarian) of the same compound?
Its TGI is 57.5 µM.

And the GI50 (SF-539 CNS)?
The GI50 was 19 µM.

What about the TGI (SF-539 CNS) of the same compound?
The TGI was 36.2 µM.

What about the GI50 (SR leukemia) of the same compound?
The GI50 was 1.25 µM.

What about the TGI (SR leukemia) of the same compound?
Its TGI is 5.61 µM.

What about the GI50 (MALME-3M melanoma) of the same compound?
Its GI50 is 19 µM.

What about the TGI (MALME-3M melanoma) of the same compound?
Its TGI is 38.6 µM.

What about the GI50 (SN12C renal) of the same compound?
The GI50 was 18.3 µM.

What about the TGI (SN12C renal) of the same compound?
The TGI was 35.9 µM.

What about the GI50 (TK-10 renal) of the same compound?
The GI50 was 18.6 µM.

And the TGI (TK-10 renal)?
Its TGI is 33.7 µM.

And the GI50 (MDA-MB-231 breast)?
Its GI50 is 11.3 µM.

What about the TGI (MDA-MB-231 breast) of the same compound?
Its TGI is 27.5 µM.

What about the GI50 (OVCAR-5 ovarian) of the same compound?
The GI50 was 22.7 µM.

What about the TGI (OVCAR-5 ovarian) of the same compound?
The TGI was 49.6 µM.

And the GI50 (T-47D breast)?
Its GI50 is 23 µM.

What about the TGI (T-47D breast) of the same compound?
Its TGI is greater than 62.2 µM.

What about the GI50 (SW-620 colon) of the same compound?
The GI50 was 1.3 µM.

What about the TGI (SW-620 colon) of the same compound?
Its TGI is 17.8 µM.

And the GI50 (DU-145 prostate)?
The GI50 was 20.5 µM.

What about the TGI (DU-145 prostate) of the same compound?
Its TGI is greater than 49.5 µM.

What about the GI50 (HOP-92 NSCLC) of the same compound?
Its GI50 is 17.3 µM.

What about the TGI (HOP-92 NSCLC) of the same compound?
The TGI was 35.1 µM.

And the GI50 (OVCAR-3 ovarian)?
The GI50 was 17 µM.

And the TGI (OVCAR-3 ovarian)?
Its TGI is 34.5 µM.

What about the GI50 (OVCAR-4 ovarian) of the same compound?
The GI50 was 20.8 µM.

What about the TGI (OVCAR-4 ovarian) of the same compound?
Its TGI is greater than 58.9 µM.

What about the GI50 (CAKI-1 renal) of the same compound?
Its GI50 is 21.8 µM.

What about the TGI (CAKI-1 renal) of the same compound?
The TGI was 51.5 µM.

And the GI50 (M14 melanoma)?
Its GI50 is 15.5 µM.

What about the TGI (M14 melanoma) of the same compound?
The TGI was 30.8 µM.

And the GI50 (MOLT-4 leukemia)?
Its GI50 is 1.61 µM.

What about the TGI (MOLT-4 leukemia) of the same compound?
The TGI was greater than 51.5 µM.

And the GI50 (HCT-15 colon)?
Its GI50 is 11.9 µM.

What about the TGI (HCT-15 colon) of the same compound?
Its TGI is 25.3 µM.

And the GI50 (RXF 393 renal)?
The GI50 was 15.9 µM.

What about the TGI (RXF 393 renal) of the same compound?
The TGI was 31.9 µM.

And the GI50 (NCI-H23 lung)?
The GI50 was 17.3 µM.

And the TGI (NCI-H23 lung)?
The TGI was 34.6 µM.

What about the GI50 (SNB-19 CNS) of the same compound?
The GI50 was 28.1 µM.

What about the TGI (SNB-19 CNS) of the same compound?
Its TGI is greater than 68.2 µM.

What about the GI50 (UACC-62 melanoma) of the same compound?
Its GI50 is 18.5 µM.

And the TGI (UACC-62 melanoma)?
The TGI was 38.2 µM.
